US20080017207A1, “Reduction of the Deleterious Effects of Tobacco Smoking by the Induction of Phase 2 Enzymes by Nerf2” (SAVIPU PHARMACEUTICALS, priority 2006, published 2008)

Legend:
[1] = tested on: benzo[a]pyrene-induced gastric neoplasia; settings: cited from earlier work
RTE cells = experiment: toxicity of tanshinone IIA to RTE cells; assay type: cell-based, rat
Procedure: (§1) The rat tracheal epithelial (RTE) cell focus inhibition assay was used to identify potential chemopreventive activity of tanshinone IIA. Tanshinone IIA was evaluated for its ability to inhibit benzo[a]pyrene-induced transformation of RTE cells. Tracheal epithelial cells were isolated from 8-12 week-old male Fisher 344 rats and plated on collagen coated dishes. Initially, a nontoxic concentration of tanshinone IIA was determined by treating RTE cells with a range of 1.5 nM to 3000 nM of tanshinone IIA. […] About 10% cells survived at a concentration of 1500 nM. Freshly isolated RTE cells were exposed to benzo[a]pyrene alone or in combination with tanshinone IIA. Benzo[a]pyrene was washed out after an exposure of 24 h. The maximal non-toxic concentration and four half log concentrations of tanshinone IIA (300 nM to 3 nM) were used for the chemopreventive assay. After 30 days in culture, transformed foci were scored and inhibition was quantitated. […] A positive control of retinoic acid inhibited the transformation frequency by 50% at 1 nM.

[2] = tested on: benzo[a]pyrene-induced transformation of RTE cells; experiment: rat tracheal epithelial (RTE) cell focus inhibition assay; assay type: cell-based
Procedure: as §1

NF-κB = settings: as disclosed in U.S. Application Ser. No. 60/779,142; cited from earlier work

Question: Which tumor burden ([1]; nrf2-deficient mice) does the source give for Cc1c(-c2cnccn2)ssc1=S [Oltipraz, 4-methyl-5-[2-pyrazinyl]-1,2-dithiole-3-thione] here?
Answer: no effect

Question: And the “multiplicity of gastric neoplasia” value ([1]; wild-type mice)?
Answer: significantly reduced

Question: For Cc1coc2c1C(=O)C(=O)c1c-2ccc2c1CCCC2(C)C [Tanshinone IIA], which cells survived (RTE cells; at 1500 nM) is on record?
Answer: About 10%

Question: And the nontoxic concentration (RTE cells; range tested 1.5 nM to 3000 nM)?
Answer: ≤ 150 nM

Question: And the “toxicity to the cells” value (RTE cells; very low concentrations (3 nM))?
Answer: nontoxic

Question: And the “prevention of benzo[a]pyrene-induced transformation of rat tracheal epithelial cells” value ([2]; 3 nM)?
Answer: totally prevented

Question: And the “inhibition of transformation frequency” value ([2]; each dose level, 300 nM to 3 nM, foci scored after 30 days in culture)?
Answer: complete inhibition

Question: What about the “inhibition of NF-κB” value (NF-κB) of the same compound?
Answer: demonstrated inhibition

Question: Which inhibition at 0.001 µM ([2]; Rattus norvegicus, at 1 nM, positive control, read-out: inhibition of transformation frequency) does the source give for CC1=C(/C=C/C(C)=C/C=C/C(C)=C/C(=O)O)C(C)(C)CCC1 [retinoic acid, reference compound] here?
Answer: 50%
